Assay results as given in US20170128475A1, “COMPOSITIONS AND METHODS FOR PREVENTING AND TREATING ORGAN INJURY AND/OR DYSFUNCTION” (THE GENERAL HOSPITAL CORPORATION, priority 2010, published 2017).

Assays:
[1] = tested on: hepatic gap junction communication; assay: Tissue scrape and load assay on explanted liver slices; format: in vivo, mice; details: 2APB 20 mg/kg i.p.; livers excised after 3 hours
Description: (§1) FIG. 2A-FIG. 2F presents data on small molecule inhibitors of Cx32 that selectively block hepatic gap junction communication and limit drug-induced hepatotoxicity. FIG. 2A and FIG. 2B depict a dye-coupling parachute assay was used to determine the specificity of 2APB for Cx32 gap junctions compared to Cx43 gap junctions. HeLa Cx32 or Cx43 cells were loaded with gap junction permeable calcein-AM (10 μM) and impermeable CM-DiI (10 μM), and seeded onto unlabeled recipient HeLa Cx32 or Cx43 cells, respectively, in the presence or absence of 2APB (100 μM). After 4 hours, the co-culture was analyzed by fluorescence microscopy (n>5), and gap junction communication was assessed by calculating the average number of calcein positive cells per CM-Dil positive cells, normalized to control conditions without 2APB treatment. […] Slices were washed, fixed, cryosectioned (7 μm), and analyzed by fluorescence microscopy (n>5) and custom automated image analysis software to produce iso-intensity contour maps outlining spread of Lucifer yellow and dextran-Texas red. […]
Fluorescence images were captured on a Zeiss 200 Axiovert microscope at a fixed exposure and gain. Images for the tissue scrape load assay were quantified using custom image analysis routines written in MATLAB13. […] Regional outlines were plotted as contour maps by displaying iso-intensity lines at the determined threshold level.

[2] = tested on: wild type mice; assay: TAA-induced hepatotoxicity in wild type mice treated with 2APB; format: in vivo; details: for total hepatic ROS levels: 2APB (20 mg/kg) coadministered with TAA (200 mg/kg), 4 hours, dihydroethidium staining
Description: FIG. 2A-FIG. 2F presents data on small molecule inhibitors of Cx32 that selectively block hepatic gap junction communication and limit drug-induced hepatotoxicity. FIG. 2A and FIG. 2B depict a dye-coupling parachute assay was used to determine the specificity of 2APB for Cx32 gap junctions compared to Cx43 gap junctions. HeLa Cx32 or Cx43 cells were loaded with gap junction permeable calcein-AM (10 μM) and impermeable CM-DiI (10 μM), and seeded onto unlabeled recipient HeLa Cx32 or Cx43 cells, respectively, in the presence or absence of 2APB (100 μM). After 4 hours, the co-culture was analyzed by fluorescence microscopy (n>5), and gap junction communication was assessed by calculating the average number of calcein positive cells per CM-Dil positive cells, normalized to control conditions without 2APB treatment. FIG. 2C depicts a tissue version of the scrape and load test, developed to evaluate functional gap junction intercellular communication in liver tissue. Cx32+/+ and Cx32−/− mice were treated with saline, 2APB (20 mg/kg), or 2APB plus TAA (200 mg/kg) for 3 hours. Livers were excised, cut into 2-3 mm slices, and a small area of each slice was mechanically damaged with the insertion of a 27 gauge needle coated with 0.5% Lucifer yellow (gap junction permeable) and 0.5% Texas red labeled dextran (gap junction impermeable). Slices were washed, fixed, cryosectioned (7 μm), and analyzed by fluorescence microscopy (n>5) and custom automated image analysis software to produce iso-intensity contour maps outlining spread of Lucifer yellow and dextran-Texas red. […] FIG. 2D: Serum alanine aminotransferase (ALT) levels; FIG. 2E: liver tissue MPO activity; and FIG. 2F: H&E liver sections (original magnification 10×; scale bar=400 μm) from wildtype mice pretreated with 2APB (20 mg/kg) or vehicle for 60 minutes, and then challenged with TAA (200 mg/kg) for 24 hours.
(§2) Serum ALT levels (FIG. 3A); liver tissue MPO activity (FIG. 3B); and H&E liver sections (FIG. 3C) (original magnification 10×; scale bar=400 μm) from wildtype mice after treatment with 2APB alone (20 mg/kg), TAA (200 mg/kg) plus vehicle, TAA (200 mg/kg) plus 2APB (1 or 20 mg/kg), APAP (500 mg/kg) plus vehicle, or APAP (500 mg/kg) plus 2APB (20 mg/kg). Livers and sera were collected 24 hours after TAA challenge, or 16 hours after APAP challenge. FIG. 3D reflects Q-PCR for TNF-α, […], IL-6, and CCL5 from whole livers of mice treated with TAA and 2APB as described above. FIG. 3E is a Kaplan-Meier survival curve for wildtype mice over 30 days after a single lethal dose of TAA (500 mg/kg) plus vehicle, or TAA (500 mg/kg) plus 2APB (20 mg/kg) (n=10). Serum ALT levels (FIG. 3F) and H&E liver sections (FIG. 3G) (original magnification 10×; scale bar=400 μm) from wildtype mice after TAA (200 mg/kg) or APAP (500 mg/kg), with or without a rescue injection of 2APB (20 mg/kg) at 1.5, 3 or 6 hours after hepatotoxin challenge. Livers and sera were collected 24 hours after TAA challenge, or 16 hours after APAP challenge.
Liver cryosections from Cx32+/+ mice treated with vehicle, TAA (200 mg/kg) plus vehicle, or TAA (200 mg/kg) plus 2APB (20 mg/kg) for 4 hours were stained with dihydroethidium, a cell permeable free radical probe that binds nucleic DNA and becomes fluorescent when […], and analyzed by fluorescence microscopy for ROS activity (n>5).
TAA (Sigma Aldrich, St. Louis, Mo.) solution was made fresh for each experiment in 0.9% saline at 20 mg/ml. TAA was dosed at 200, 500 or 1000 mg/kg, depending on the experiment, and injected intraperitoneally. Control mice received the appropriate volume of 0.9% saline. Animals were euthanized by ketamine/xylazine injection at 24 hr for collection of serum and liver tissue for qPCR, GSH/GST assay, MPO activity assay, and histology. For survival experiments, animals were observed every 24 hr for 30 days.
2APB (Sigma Aldrich) was made fresh for each experiment in DMSO as a vehicle at 200 mg/ml. […]

[3] = tested on: Cx32 gap junctions; assay: Dye-coupling parachute assay, HeLa Cx32 cells; format: cell-based; details: 2APB 100 μM, 4 hours, normalized to no 2APB
Description: as §1, with “treatment. FIG. 2C depicts a tissue version of the scrape and load test, developed to evaluate functional gap junction intercellular communication in liver tissue. Cx32+/+ and Cx32−/− mice were treated with saline, 2APB (20 mg/kg), or 2APB plus TAA (200 mg/kg) for 3 hours.” for “treatment.”

[4] = molecular target: Cx32 gap junctions (Homo sapiens, UniProt P08034); details: shown previously, Tao & Harris, 71 Mol. Pharmacol. 57 (2007); cited from earlier work
[5] = tested on: Cx43 gap junctions; assay: Dye-coupling parachute assay, HeLa Cx43 cells; format: cell-based; details: 2APB 100 μM, 4 hours, normalized to no 2APB
Description: as §1, with “treatment. FIG. 2C depicts a tissue version of the scrape and load test, developed to evaluate functional gap junction intercellular communication in liver tissue. Cx32+/+ and Cx32−/− mice were treated with saline, 2APB (20 mg/kg), or 2APB plus TAA (200 mg/kg) for 3 hours.” for “treatment.”

[6] = tested on: wild type mice; assay: APAP-induced hepatotoxicity in wild type mice treated with 2APB; format: in vivo
Description: as §2
APAP (Sigma Aldrich) solution was made fresh for each experiment in 0.9% saline at 20 mg/ml and heated until dissolved. APAP was dosed at 500 or 750 mg/kg, and injected intraperitoneally after 15 hr of starvation. Animals were euthanized by ketamine/xylazine injection at 16 hr for collection of serum, and liver tissue for MPO activity assay and histology.
2APB (Sigma Aldrich) was made fresh for each experiment in DMSO as a vehicle at 200 mg/ml. 2APB was dosed at 1 or 20 mg/kg, and was administered before (90 min), with, or after (1.5, 3 or 6 hr) the appropriate dose of TAA or APAP. Vehicle control mice received the appropriate volume of DMSO. Fresh anhydrous DMSO (Sigma Aldrich) was used for each experiment. DMSO was dosed at 0.1 or 1 ml/kg, and coadministered concurrently with 200 mg/kg TAA or saline.
Mouse liver tissues were homogenized in MPO buffer (0.5% hexadecyl trimethyl ammonium bromide, 10 mM EDTA, 50 mM Na2HPO4, pH 5.4) using a Polytron homogenizer. Liver homogenates were then subject to three freeze-thaw cycles and cleared by centrifugation. MPO reaction was carried out using the Invitrogen EnzChek Myeloperoxidase Activity Assay Kit (Invitrogen, Carlsbad, Calif.), according to the manufacturer's protocol.

[7] = tested on: Cx32+/+ and Cx32−/− mice; assay: TAA-induced mortality in Cx32+/+ and Cx32−/− mice; format: in vivo; details: single lethal dose 500 mg/kg TAA, 30 days
Description: FIG. 1C is a series of micrographs showing less liver hemorrhaging, necrosis and acute inflammation in Cx32−/− mice compared to Cx32+/+ mice 24 hours after TAA treatment (H&E staining; original magnification 10×; scale bar=400 μm). FIG. 1D presents bar graphs depicting increase in total liver TNF-α, pro-IL-1α, IL-6, and CCL5 transcripts, as measured by Q-PCR, in Cx32+/+ mice 12 hours after TAA, compared to Cx32−/− mice. FIG. 1E is a bar graph of liver tissue myeloperoxidase activity (MPO) in Cx32+/+ and Cx32−/− mice 24 hours after treatment with TAA. FIG. 1F is a Kaplan-Meier survival curve for Cx32+/+ and Cx32−/− mice over 30 days after a single lethal dose of 500 mg/kg TAA (Cx32+/+ and Cx32−/−: n=12).
C57BL/6 mice were purchased from Jackson Laboratory. Cx32−/− mice were a generous gift from K. Willecke (University of Bonn) and D. Paul (Harvard University). All animal protocols were approved by Massachusetts General Hospital Subcommittee on Research Animal Care. For survival experiments, animals were euthanized when they became moribund according to the criteria of lack of response to stimuli or lack of righting reflex.
TAA (Sigma Aldrich, St. Louis, Mo.) solution was made fresh for each experiment in 0.9% saline at 20 mg/ml. TAA was dosed at 200, 500 or 1000 mg/kg, depending on the experiment, and injected intraperitoneally. Control mice received the appropriate volume of 0.9% saline. […]

[8] = 2APB coadministered with TAA (200 mg/kg), 24 hours
[9] = rescue injection of 2APB (20 mg/kg) 6 hours after TAA (200 mg/kg)
[10] = single dose 2APB (20 mg/kg) 60 minutes prior to TAA (200 mg/kg), 24 hours, compared to vehicle
[11] = 2APB (20 mg/kg) coadministered with APAP (500 mg/kg), 16 hours
[12] = rescue injection of 2APB (20 mg/kg) 6 hours after APAP (500 mg/kg)

Chain of Cx32 gap junctions (Homo sapiens, UniProt P08034) (P08034 whole entry): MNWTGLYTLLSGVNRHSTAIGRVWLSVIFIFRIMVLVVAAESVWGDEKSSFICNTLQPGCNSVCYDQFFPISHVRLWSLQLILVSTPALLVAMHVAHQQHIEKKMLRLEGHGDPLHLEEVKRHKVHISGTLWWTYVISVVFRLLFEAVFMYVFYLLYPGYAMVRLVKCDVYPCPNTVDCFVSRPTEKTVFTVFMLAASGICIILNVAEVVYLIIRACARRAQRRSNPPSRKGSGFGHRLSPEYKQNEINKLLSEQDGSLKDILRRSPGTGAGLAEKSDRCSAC

## NCCOB(c1ccccc1)c1ccccc1 [2APB, 2-aminoethyoxydiphenyl-borate]
[1]
  hepatic gap junction communication in vivo (spread of Lucifer yellow): effectively blocks
[2]
  total hepatic ROS levels: dramatically reduced
[2]; listed as 2-APB
  total hepatic ROS levels: abrogated
[2]; 2APB (1 or 20 mg/kg) coadministered with TAA (200 mg/kg), 24 hours, compared with TAA alone
  serum ALT: dramatically reduced
[2]; [8]
  histological evidence of hepatic necrosis and hemorrhaging: dramatically reduced
  neutrophil infiltration (liver tissue MPO activity): dramatically reduced
[2]; 2APB coadministered with TAA (200 mg/kg), Q-PCR of whole livers
  liver inflammation: dramatically reduced
[2]; rescue injection of 2APB (20 mg/kg) 1.5 hours after TAA (200 mg/kg)
  hepatotoxicity: nearly complete absence
[2]; [9]
  hepatocellular damage and necrosis: limited
  serum ALT levels: reduced
[2]; [10]
  histological evidence of parenchymal damage: dramatically reduced
  neutrophil infiltration (liver tissue MPO activity): limited
  serum ALT: significantly reduced
[2]; single lethal dose TAA (500 mg/kg) plus 2APB (20 mg/kg), 30 days
  survival: 100%
[3]
  spread of calcein via Cx32 gap junctions: blocked
[4]
  inhibition of Cx32 gap junctions in vitro: transiently inhibit
[5]
  effect on Cx43 gap junctions (spread of calcein): minimal effect
[6]; [11]
  histological evidence of hepatic necrosis and hemorrhaging: dramatically reduced
  neutrophil infiltration (liver tissue MPO activity): dramatically reduced
[6]; 2APB (20 mg/kg) coadministered with APAP (500 mg/kg), 16 hours, compared with APAP alone
  serum ALT: dramatically reduced
[6]; 2APB coadministered with APAP
  liver inflammation: dramatically reduced
  total hepatic ROS levels: dramatically reduced
[6]; rescue injection of 2APB (20 mg/kg) 1.5 hours after APAP (500 mg/kg)
  hepatotoxicity: nearly complete absence
[6]; [12]
  hepatocellular damage and necrosis: limited
  serum ALT levels: reduced

## CC(=N)S [TAA, thioacetamide]
[7]; Cx32+/+ mice
  mortality: 100%
[7]; Cx32−/− mice
  survival: 100%
